Experimental data reported in patent US20260102492A1, “Inhibition of Natural Killer Cell Cytoxocity” (University of Cincinnati, priority 2022, published 2026).

Columns and labels:
[1] = test system: HNSCC patient-derived NK cells; experiment: CXCL1 ELISA of NK cell culture supernatant; type: cell-based, Human
Method: Healthy donor and HNSCC NK cells were isolated from PBMCs and were treated for 24 hrs with vehicle or metformin. Supernatant was collected and analyzed by ELISA (analyzed by one way ANOVA. n=10).
HNSCC NK cells were isolated from PBMCs and treated with vehicle, 12 mM metformin, 50 ng CXCL1, 10 uM everolimus, or 10 uM BP-1-102 for 24 hr. The cells were washed and plated in fresh media. After 24 hrs, supernatant was collected for ELISA.

[2] = test system: HNSCC patient-derived NK cells; experiment: NK cell perforin ELISA after co-culture with Cal27 cells; type: cell-based, Human; settings: for reversal of CXCL1 mediated inhibition of perforin: 50 ng CXCL1, Cal27 4 hours
Method: For NK cell perforin assays, NK cells were treated with drug for 24 hrs, washed, and co-cultured with Cal27 cells for 4 hours. Supernatant was then collected, snap frozen in liquid nitrogen and stored at −80 until thawed for single use. For patient samples, undiluted plasma was added directly to ELISA. ELISA kit for perforin was obtained from ABCAM. ELISA was performed according to the manufacturer's protocol. Protocols included overnight coating of capture antibody diluted by lot number recommendation, 1 hr block with 400 uL 2% BSA in PBS, 2 hr sample incubation at room temperature of 100 uL sample (no dilution of sample was performed in these experiments), 2 hr […] diluted by lot number recommendation, 20 min Streptavidin incubation with 100 uL of 1:40 dilution of stock, and 15 min incubation with 100 uL included TMB ELISA reagent. 50 uL stop solution of in house 2N […] was added to stop reaction before reading at […] wavelength on plate reader. All plates included standard curve prepared per lot number recommendation with range of 35-2000 pg.
HNSCC patient-derived NK cells were treated with exogenous CXCL1 and an inhibitor of the CXCL1 receptor, CXCR2, or metformin. Patient-derived NK cells were exposed to Cal27 cells for 4 hours and supernatant was collected for perforin analysis by ELISA. Specifically, HNSCC NK cells derived from PBMCs were treated with 50 ng CXCL1, 12 mM metformin, or 10 nM CXCR2i (navarixin) and subjected to perforin against Cal27 target cells. Cells were analyzed by flow and analyzed by one way ANOVA. n=8.
Specifically, HNSCC NK cells were treated with vehicle, metformin, or 10 uM AMPK inhibitor (Dosomorphin) for 24 hrs, washed, and co-cultured with Cal27 cells for 4 hrs. Supernatant was collected for ELISA and analyzed by one way ANOVA. n=5.
HNSCC patient-derived NK cells were treated with vehicle, metformin, 10 uM mTOR inhibitor (Everolimus), or 10 uM mTOR activator (MHY1485) for 24 hrs, washed, and co-cultured with Cal27 cells for 4 hrs. Supernatant was collected for ELISA and analyzed by one way ANOVA. n=5.
As pSTAT1 can modulate perforin production, HNSCC patient-derived NK cells were treated with vehicle, […], or 10 uM of pSTAT1i inhibitor Fludarabine for 24 hrs, washed, and co-cultured with Cal27 cells for 4 hrs.
HNSCC NK cells were treated with vehicle, 12 mM metformin, 50 ng CXCL1, or 10 uM pSTAT3 inhibitor BP-1012 and co-cultured with Cal27 cells for 4 hrs. Supernatant was collected for ELISA and analyzed by one way ANOVA. n=5.

HNC cells = experiment: Natural killer cytotoxicity assay (NKCA), NK cells against CFSE labeled HNC cells (7AAD); type: cell-based; settings: exogenous CXCL1 added to metformin treated NK cells
Method: FIG. 12B is a graph showing NK cells that were treated with either pembrolizumab (PD-1 inhibitor), exogenous CXCL1, Navaxarin (CXCR2 inhibitor) or combination and combined with CFSE labeled HNC cells. Cytotoxicity was measured by 7AAD 4 hours after incubation. N=5, PBMCS or NK cells isolated from the same PBMCs from patient samples.
NK cells were isolated from PBMCs using the EasySep Human NK Cell Isolation Kit (Stem Cell Technologies). Cells were washed in Robobuffer and treated with drug indicated in legend for 24 hrs in culture medium. One day before co-culture, cells were collected, washed, and stained with 5(6)-Carboxyfluorescein diacetate N-succinimidyl ester (CFDA-SE) (StemCell Technologies). Untreated UMSCC47, Cal-27, or matched primary HNC tumor cell lines cells were plated at 20,000 cell/ml and assumed to double overnight. NK cells were resuspended in RPMI 1640 (Corning) with 5% human serum at a density of 200,000 cells/ml. Cells were co-cultured for a Target:Effector ratio of 1:5 for 4 hrs, collected, and washed in flow buffer. Cells were then stained with 7AAD Viability Staining Solution (Biolegend). Cells were immediately run on a 4-laser BD Instrument (University of Cincinnati Cancer Cell Biology Department, Cincinnati, Ohio). […] NK killed cells were calculated by the following equation: (% CSFE+7AAD+experimental co-culture)−(% CSFE+7AAD+control no co-culture).

pSTAT1 = experiment: Western blot of HNSCC NK cell lysates, pSTAT1; type: cell-based, Human; settings: metformin or 50 ng CXCL1, 24 hrs, FIG. 3A/3B
Method: NK92, Cal27, UMSCC47 and HN5 cells were cultured with drug as described. Cells were collected in RIPA (0.05% sodium deoxycholate, […], 0.1% SDS, 1% NP-40) and protein content was analyzed by Pierce BCA kit (Thermo 23225). 50 ug of protein was diluted in 1×loading buffer (SDS, bromophenol blue, 47% glycerol, Tris 0.5M pH 6.8, 0.2 mM DTT-G) and heated to 90° C. for 3 minutes. Prepared lysate was loaded into gradient gels (Biorad 4561093) and run at 85V for 1.5 hour in Biorad casing with a Biorad powerpack in 1×running buffer (Tris, Glycine, SDS). Gels were transferred on nitrocellulose and run at 100V on bench for 1 hour in 1×transfer buffer (Tris, Glycine). […] Images were analyzed in Image Studio Lite V 5.2.
To determine what those pathways could be, pathways known to be affected by both metformin and CXCL1 were investigated. pSTAT3 and mTOR are known to be increased by activation of the CXCR2 receptor, and mTOR activation can inhibit pSTAT1 expression. […] Therefore, HNSCC patient-derived NK cells treated with metformin, CXCL1, or CXCR2i (navaxarin) were collected and analyzed by western blot analysis. Head and neck squamous cell carcinoma (HNSCC) natural killer (NK) cells were treated with metformin, 50 ng CXCL1, or 10 uM CXCR2i (navarixin) for 24 hrs and collected for lysates analyzed by western blot analysis (FIG. 3A).

pSTAT3 = experiment: Western blot of HNSCC NK cell lysates, pSTAT3; type: cell-based, Human
Method: NK92, Cal27, UMSCC47 and HN5 cells were cultured with drug as described. Cells were collected in RIPA (0.05% sodium deoxycholate, […], 0.1% SDS, 1% NP-40) and protein content was analyzed by Pierce BCA kit (Thermo 23225). 50 ug of protein was diluted in 1×loading buffer (SDS, bromophenol blue, 47% glycerol, Tris 0.5M pH 6.8, 0.2 mM DTT-G) and heated to 90° C. for 3 minutes. Prepared lysate was loaded into gradient gels (Biorad 4561093) and run at 85V for 1.5 hour in Biorad casing with a Biorad powerpack in 1×running buffer (Tris, Glycine, SDS). Gels were transferred on nitrocellulose and run at 100V on bench for 1 hour in 1×transfer buffer (Tris, Glycine). Membranes were blocked in 5% BSA in TBS for 1 hr, washed, and incubated in primary diluted in 2% BSA in TBS overnight. Membranes were washed and incubated in Licor secondary (Licor 926-32211 and 925-68070) in 5% BSA in TBS for 1 hr. Membranes were washed and imaged on a Licor Odyssey Clx. Images were analyzed in Image Studio Lite V 5.2.
To determine what those pathways could be, pathways known to be affected by both metformin and CXCL1 were investigated. pSTAT3 and mTOR are known to be increased by activation of the CXCR2 receptor, and mTOR activation can inhibit pSTAT1 expression. Metformin is also hypothesized to inhibit pSTAT3 and mTOR in NK cells. Therefore, HNSCC patient-derived NK cells treated with metformin, CXCL1, or CXCR2i (navaxarin) were collected and analyzed by western blot analysis. Head and neck squamous cell carcinoma (HNSCC) natural killer (NK) cells were treated with metformin, 50 ng CXCL1, or 10 uM CXCR2i (navarixin) for 24 hrs and collected for lysates analyzed by western blot analysis (FIG. 3A).

CXCL1 [3] = experiment: Patient plasma CXCL1 ELISA, trial NCT02641093 (pre and post pembrolizumab); type: in vivo, Human
CXCL1 [4] = experiment: Plasma CXCL1 of pembrolizumab treated head and neck cancer patients (FIG. 11); type: in vivo, Human; settings: pembrolizumab treated patients vs baseline; preliminary data
From the text: CXCL1 was knocked out by CRISP-Cas9 in NK cells as a novel approach in order to enhance their tumor cytotoxicity. These NK cells can be used as an “off the shelf” anti-cancer therapeutic. […] In addition, CXCL1 functions were inhibited with a CXCR2 inhibitor as an alternative treatment strategy with and without addition of a PD-1 inhibitor. […] In addition, the combination of pembrolizumab and CXCR2 inhibitor (Navaxarin) increases both PBMC and NK cell cytotoxicity (FIGS. 12A, 12B and 13).

[5] = combination of 10 uM everolimus and 10 uM BP-1-102, also with 50 ng CXCL1, n=5
[6] = single agent (12 mM metformin, 10 uM everolimus or 10 uM BP-1-102) 24 hr, fresh media 24 hrs, n=5, FIG. 8
[7] = 10 uM single agent 24 hrs, Cal27 co-culture 4 hrs, n=5, FIG. 5

CO[C@H]1C[C@@H]2CC[C@@H](C)[C@@](O)(O2)C(=O)C(=O)N2CCCC[C@H]2C(=O)O[C@H]([C@H](C)C[C@@H]2CC[C@@H](OCCO)[C@H](OC)C2)CC(=O)[C@H](C)/C=C(\C)[C@@H](O)[C@@H](OC)C(=O)[C@H](C)C[C@H](C)/C=C/C=C/C=C/1C [Everolimus]
CXCL1 secretion [1, 5]: decreased levels down to those similar of metformin even in the presence of CXCL1
CXCL1 secretion [1, 6]: did not reduce CXCL1
perforin production ([2]; 10 uM Everolimus in combination with metformin 24 hrs, Cal27 co-culture 4 hrs, n=5): did not increase perforin over either agent alone
perforin production [2, 7]: enhanced perforin production similar to metformin

C-X-C motif chemokine ligand 1 [CXCL1]
metformin induced cytotoxicity (HNC cells): ablated metformin induced cytotoxicity
perforin production ([2]; 12 mM metformin or 50 ng CXCL1, Cal27 target cells 4 hours, n=8, FIG. 2): reduced NK cell perforin production
metformin mediated NK degranulation ([2]; exogenous CXCL1 added to metformin, FIG. 2): reverses metformin mediated NK degranulation
pSTAT1 (pSTAT1): did not reverse pSTAT1 expression with metformin or change it from baseline
metformin reduction of pSTAT3 (pSTAT3; exogenous CXCL1 (50 ng) together with metformin, 24 hrs): reversed
pSTAT3 (pSTAT3; metformin or 50 ng CXCL1, 24 hrs, western blot, FIG. 3A/3B): increases pSTAT3

pembrolizumab
plasma CXCL1 (CXCL1 [3]; all patients, post vs pre pembrolizumab, FIG. 10A): significant increase in CXCL1
plasma CXCL1 (CXCL1 [3]; divided into responders and non-responders, n=10 each, FIG. 10B): non-responders accounted for the increase
plasma CXCL1 (CXCL1 [3]; divided into responders and non-responders, n=10 each, FIG. 10B, listed as Pembrolizumab): increased with non-responders
CXCL1 in plasma (CXCL1 [4]): trend to higher levels of CXCL1

O=[N+]([O-])c1ccc(Nc2nc(N3CCOCC3)nc(N3CCOCC3)n2)cc1 [MHY1485]
perforin production [2, 7]: did not result in suppression of perforin

CC[C@@H](Nc1c(Nc2cccc(C(=O)N(C)C)c2O)c(=O)c1=O)c1ccc(C)o1 [CXCR2 inhibitor, Navarixin]
reversal of CXCL1 mediated inhibition of perforin ([2]; 10 nM CXCR2i (navarixin) alone, n=8): reversed CXCL1 mediated inhibition
reversal of CXCL1 mediated inhibition of perforin ([2]; 10 nM CXCR2i (navarixin) in combination with 12 mM metformin, n=8): reversed CXCL1 mediated inhibition

CN(CC(=O)N(Cc1ccc(C2CCCCC2)cc1)c1ccc(C(=O)O)c(O)c1)S(=O)(=O)c1c(F)c(F)c(F)c(F)c1F [BP-1-102]
CXCL1 secretion [1, 5]: decreased levels down to those similar of metformin even in the presence of CXCL1
CXCL1 secretion [1, 6]: did not reduce CXCL1
rescue of CXCL1 mediated suppression of perforin ([2]; 10 uM pSTAT3 inhibitor with 50 ng CXCL1, alone or with 12 mM metformin, Cal27 4 hrs, n=5): able to rescue CXCL1 mediated suppression of perforin both alone or in presence of metformin
perforin ([2]; 10 uM pSTAT3 inhibitor, baseline, Cal27 co-culture 4 hrs, n=5, FIG. 7): no effect on perforin at baseline
